# pEC50: −log10 of the molar value. Like-named read-outs stand apart in the source and are kept apart here.
# Legend:
# KKAY mice [1] = assay: Plasma anti-arteriosclerosis index-enhancing action in mice (Test Example 2); assay type: in vivo; conditions: Mus musculus, po, 96 h, 0.005% in powdery diet, four days, percent increase of (HDL cholesterol/total cholesterol)x100, non-treatment group taken as 100%
# Procedure: Test compounds were mixed in a powdery diet (CE-2, Japan Clea) at the concentration of 0.005%, and freely given to KKAY mice (9 to 12 weeks old, 5 mice per group), a model of obese and non-insulin dependent diabetes (type 2 diabetes), for four days. During this period, water was given freely. Blood was sampled from orbital venous plexus and components in plasma separated from blood were determined. Total cholesterol levels were determined by using L type Wako Cholesterol (Wako Pure Chemical Industries, Ltd.). Precipitation reagent for HDL cholesterol (Wako Pure Chemical Industries, Ltd.) was added to a part of the plasma to precipitate non-HDL lipoprotein, and cholesterol (HDL cholesterol) in the resulting supernatant was determined. The plasma anti-arteriosclerosis index [(HDL cholesterol/total cholesterol)×100] was calculated by using these cholesterol levels.
# In the Table, “Plasma anti-arteriosclerosis index-enhancing action (%)” represents the percent increase (%) of plasma anti-arteriosclerosis index in the treatment group, when the plasma anti-arteriosclerosis index in the non-treatment group is taken as 100%.
# KKAY mice [2] = assay: Hypoglycemic and hypolipidemic actions in mice (Test Example 1); assay type: in vivo; conditions: Mus musculus, po, 96 h, 0.005% in powdery diet, four days, non-treated group taken as 100%
# Procedure: Test compounds were mixed in a powdery diet (CE-2, Japan Clea) at the concentration of 0.005%, and freely given to KKAY mice (9 to 12 weeks old, 5 mice in a group), a model of obese and non-insulin dependent diabetes (type 2 diabetes), for four days. During this period, water was given freely. Blood was sampled from orbital venous plexus, and glucose and triglyceride levels in plasma separated from blood were determined enzymatically using L type Wako Glu2 (Wako Pure Chemical Industries, Ltd.) or L type Wako TG·H (Wako Pure Chemical Industries, Ltd.), respectively.
# In the table, “hypoglycemic action (%)” means the rate of decrease (%) in the blood glucose level of the treated group when the blood glucose level of the non-treated group is taken as 100%. In addition, the “hypolipidemic action (%)” means the rate of decrease (%) in the blood triglyceride level of the treated group when the blood triglyceride level of the non-treated group is taken as 100%.
# PPARγ-RXRα heterodimer = target: T1, PPARγ-RXRα heterodimer (Homo sapiens, UniProt P37231); assay: PPARγ-RXRα heterodimer ligand activity, luciferase reporter in PPARγ:RXRα:4ERPP/CHO-K1 cells (Test Example 3); assay type: cell-based; conditions: 18-48 hours, concentration for 50% of the maximum fold induction
# T1 construct: expressed in transfected cells; host or cells: CHO-K1
# T1 sequence (P37231 1-477 isoform P37231-2): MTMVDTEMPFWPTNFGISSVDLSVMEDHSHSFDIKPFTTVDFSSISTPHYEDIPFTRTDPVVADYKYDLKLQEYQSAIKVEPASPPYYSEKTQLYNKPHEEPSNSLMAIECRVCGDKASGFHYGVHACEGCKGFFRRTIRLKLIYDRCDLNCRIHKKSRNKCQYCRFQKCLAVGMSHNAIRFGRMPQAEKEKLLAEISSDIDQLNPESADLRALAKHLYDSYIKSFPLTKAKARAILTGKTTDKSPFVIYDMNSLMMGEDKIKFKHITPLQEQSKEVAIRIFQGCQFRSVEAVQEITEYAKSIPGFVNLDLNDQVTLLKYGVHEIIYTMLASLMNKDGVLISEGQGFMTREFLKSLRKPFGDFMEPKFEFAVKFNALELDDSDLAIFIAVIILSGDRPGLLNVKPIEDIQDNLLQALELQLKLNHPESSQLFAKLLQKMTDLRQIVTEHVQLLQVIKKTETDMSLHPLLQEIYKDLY
# T1 sequence (P19793 1-462 partner): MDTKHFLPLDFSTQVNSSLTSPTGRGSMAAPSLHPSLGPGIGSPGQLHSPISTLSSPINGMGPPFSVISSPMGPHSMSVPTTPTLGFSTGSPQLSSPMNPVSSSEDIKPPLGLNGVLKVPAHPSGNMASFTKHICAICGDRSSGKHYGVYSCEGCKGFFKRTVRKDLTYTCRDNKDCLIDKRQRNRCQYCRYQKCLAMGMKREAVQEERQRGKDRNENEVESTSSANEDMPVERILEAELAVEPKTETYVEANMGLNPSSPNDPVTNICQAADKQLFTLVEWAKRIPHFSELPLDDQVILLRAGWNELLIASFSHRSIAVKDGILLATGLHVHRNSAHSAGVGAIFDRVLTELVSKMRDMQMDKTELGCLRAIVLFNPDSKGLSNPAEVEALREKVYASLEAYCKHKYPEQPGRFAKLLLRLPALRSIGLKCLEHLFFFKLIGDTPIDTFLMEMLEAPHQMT
# Procedure: A PPARγ: RXRα: 4ERPP/CHO-K1 cells obtained in Reference Example 8a described later were cultured in HAM F12 medium (produced by Life Technologies, Inc., USA) containing 10% Fetal bovine serum (produced by Life Technologies, Inc., USA) and then inoculated to a 96-well white plate (produced by Corning Costar Corporation, USA) at the density of 2×10^4 cells/well, and cultured in a CO2 gas incubator at 37° C. overnight.
# After removing the medium from 96 well white plate, 80 μl of HAM F12 medium containing 0.1% fatty acid-free bovine serum albumin (BSA) and 20 μl of test compound were added, which was cultured in a CO2 gas incubator at 37° C. for 18-48 hours. After removing the medium, 40 μl of PIKKAGENE 7.5 (produced by Wako Pure Chemical Industries, Ltd.) diluted twice with HBSS (HANKS' BALANCED SALT SOLUTION)(produced by BIO WHITTAKER Inc., USA), was added. After stirring, the luciferase activity was determined using 1420 ARVO Multilabel Counter (produced by PerkinElmer Inc., USA).
# A fold induction was calculated based on the luciferase activity of each test compound by taking the luciferase activity in the non-treatment group as 1. The values of the test compound concentration and the fold induction were analyzed using PRISM (produced by GraphPad Software Inc. USA) to calculate the EC50 values, the effective concentration of a test compound for 50% of the maximum fold induction.
# After a CHO-K1 cell cultured in a 150 cm^2 cell culture flask (750 ml)(produced by Corning Costar Corporation, USA) containing HAM F12 medium (produced by Life Technologies, Inc., USA) supplemented with 10% Fetal Bovine Serum (produced by Life Technologies, Inc., USA) was scraped by treating with 0.5 g/L trypsin-0.2 g/L EDTA (ethylenediaminetetraacetic acid) (produced by Life Technologies, Inc., USA), the cell was washed with PBS (phosphate-buffered saline) (produced by Life Technologies, Inc., USA), centrifuged (1000 rpm, 5 minutes), and then suspended in PBS. Subsequently, a DNA was introduced into the cell under the condition shown below using GENE PULSER (produced by Bio-Rad Laboratories, USA).
# Namely, to a cuvette having a 0.4 cm gap, added were 8×10^6 cells and 10 μg of plasmid pVgRXR2-hPPARγ obtained in Reference Example 7a and 10 μg of reporter plasmid pGL3-4ERPP-TK neo obtained in Reference Example 5a, which was subjected to electroporation at the voltage of 0.25 kV under the capacitance of 960 μF. Subsequently, the cell was transferred into a HAM F12 medium containing 10% Fetal Bovine Serum and cultured for 24 hours and then the cell was scraped again and centrifuged, and then suspended in HAM F12 medium containing 10% Fetal Bovine Serum supplemented with 500 μg/ml of GENETICIN (produced by Life Technologies, Inc., USA) and 250 μg/ml of ZEOCIN (produced by Invitrogen, USA). The obtained suspension was diluted to the density of 10^4 cells/ml and inoculated to a 96-well plate (produced by Corning Costar Corporation, USA), which was cultured in a CO2 gas incubator at 37° C., whereby obtaining a GENETICIN- and ZEOCIN-resistant transformant.
# Subsequently, after the transformant cell line thus obtained was cultured in a 24-well plate (produced by Corning Costar Corporation, USA), selected was a cell line in which the luciferase was expressed and induced, i.e., PPARγ:RXRα:4ERPP/CHO-K1 cell by addition of 10 μM of pioglitazone hydrochloride.
# [3] = rate of decrease in blood glucose level, read-out: Hypoglycemic action (%)
# [4] = rate of decrease in blood triglyceride level, read-out: Hypolipidemic action (%)
SMILES,change in vivo at 0.005 % in diet (KKAY mice [1]),melting point,inhibition in vivo at 0.005 % in diet (KKAY mice [2]; [3]),inhibition in vivo at 0.005 % in diet (KKAY mice [2]; [4]),pEC50 (PPARγ-RXRα heterodimer)
"CCn1cc(CC(=O)O)c(OCCCc2cn(-c3ccc(C(F)(F)F)cn3)nc2C(C)C)n1 [Example 313, [1-ethyl-3-(3-{3-isopropyl-1-[5-(trifluoromethyl)-2-pyridinyl]-1H-pyrazol-4-yl}propoxy)-1H-pyrazol-4-yl]acetic acid]",15%,99 to 100 °C,51%,48%,–
"CCCc1nn(-c2ccc(C(F)(F)F)cn2)cc1CCCOc1c(CC(=O)O)cccc1OCC [Example 260, [3-ethoxy-2-(3-{3-propyl-1-[5-(trifluoromethyl)-2-pyridyl]-1H-pyrazol-4-yl}propoxy)phenyl]acetic acid]",22%,133 to 134 °C,42%,44%,–
"CC(C)c1nn(-c2ccc(C(F)(F)F)cn2)cc1CCCOc1c(CC(=O)O)cnn1C [Example 318, [5-(3-{3-isopropyl-1-[5-(trifluoromethyl)-2-pyridinyl]-1H-pyrazol-4-yl}propoxy)-1-methyl-1H-pyrazol-4-yl]acetic acid]",22%,146 to 148 °C,–,–,–
"COc1cccc(CC(=O)O)c1OCCCc1cn(-c2ccc(C(F)(F)F)cc2)nc1C(C)C [Example 185, [2-(3-{3-isopropyl-1-[4-(trifluoromethyl)phenyl]-1H-pyrazol-4-yl}propoxy)-3-methoxyphenyl]acetic acid]",15%,114 to 115 °C,47%,43%,–
"CC(C)c1nn(-c2ccc(C(F)(F)F)cn2)cc1CCCOc1nn(C)cc1CC(=O)O [Example 299, [3-(3-{3-isopropyl-1-[5-(trifluoromethyl)-2-pyridinyl]-1H-pyrazol-4-yl}propoxy)-1-methyl-1H-pyrazol-4-yl]acetic acid]",11%,122 to 123 °C,–,–,–
"COc1cccc(CC(=O)O)c1OCCCc1cn(-c2ccc(C#N)nn2)nc1C(C)C [Example 337, (2-{3-[1-(6-cyanopyridazin-3-yl)-3-isopropyl-1H-pyrazol-4-yl]propoxy}-3-methoxyphenyl)acetic acid]",24%,–,44%,48%,–
"CCCc1nn(-c2ccc(C(F)(F)F)cn2)cc1CCCOc1nn(CC)cc1CC(=O)O [Example 305, [1-ethyl-3-(3-{3-propyl-1-[5-(trifluoromethyl)-2-pyridinyl]-1H-pyrazol-4-yl}propoxy)-1H-pyrazol-4-yl]acetic acid]",22%,105 to 106 °C,50%,55%,–
"CCOc1nn(-c2ccc(C(F)(F)F)cn2)cc1CCCOc1nn(CC)cc1CC(=O)O [Example 335, [3-(3-{3-ethoxy-1-[5-(trifluoromethyl)-2-pyridinyl]-1H-pyrazol-4-yl}propoxy)-1-ethyl-1H-pyrazol-4-yl]acetic acid]",12%,108 to 109 °C,–,–,–
"CCn1ncc(CC(=O)O)c1OCCCc1cn(-c2ccc(C(F)(F)F)cn2)nc1C(C)C [Example 322, [1-ethyl-5-(3-{3-isopropyl-1-[5-(trifluoromethyl)-2-pyridinyl]-1H-pyrazol-4-yl}propoxy)-1H-pyrazol-4-yl]acetic acid]",14%,120 to 121 °C,–,–,–
"CCC(C)c1nn(-c2ccc(C(F)(F)F)cn2)cc1CCCOc1c(CC(=O)O)cccc1OC (centres unmarked) [Example 216, [3-methoxy-2-(3-{3-(1-methylpropyl)-1-[5-(trifluoromethyl)-2-pyridyl]-1H-pyrazol-4-yl}propoxy)phenyl]acetic acid]",–,117 to 118 °C,46%,61%,7.74
"CCCC(C)c1nn(-c2ccc(C(F)(F)F)cn2)cc1CCCOc1c(CC(=O)O)cccc1OC (centres unmarked) [Example 220, [3-methoxy-2-(3-{3-(1-methylbutyl)-1-[5-(trifluoromethyl)-2-pyridyl]-1H-pyrazol-4-yl}propoxy)phenyl]acetic acid]",–,107 to 108 °C,44%,50%,8.02
